Source: ChEMBL document CHEMBL5352385, “Marine natural products and their synthetic analogs as promising antibiofilm agents for antibiotics discovery and development” (Eur J Med Chem, 2022)

Columns and labels:
Staphylococcus aureus [1] = test: Antibiofilm activity against Staphylococcus aureus ATCC 6538 assessed as reduction in biofilm formation at 50 ug/ml measured after 24 hrs by crystal violet staining based analysis relative to control; type: functional; set-up: scale not given: the % may be the effect or the level left; settings: dose 50 µg/ml
Marinobacter nauticus = test: Antibiofilm activity against Marinobacter hydrocarbonoclasticus at 31.25 ug/ml incubated for 24 hrs by crystal violet staining based analysis relative to control; type: functional; settings: dose 31.25 µg/ml
Staphylococcus aureus [2] = test: Antibiofilm activity against Staphylococcus aureus ATCC 6538 at 100 ug/ml incubated for 24 hrs by crystal violet staining based microplate reader method relative to control; type: functional; settings: dose 100 µg/ml
Staphylococcus aureus [3] = test: Antibiofilm activity against methicillin-resistant Staphylococcus aureus ATCC 6538 at 100 ug/ml incubated for 24 hrs by crystal violet staining based microplate reader method relative to control; type: functional; settings: dose 100 µg/ml
[4] = test system: Staphylococcus epidermidis; test: Antibiofilm activity against […] incubated for 24 hrs; type: functional
[5] = test system: Staphylococcus epidermidis; test: Antibiofilm activity against Staphylococcus epidermidis RP62A; type: functional
Pseudomonas aeruginosa [6] = test: Antibiofilm activity against Pseudomonas aeruginosa assessed as inhibition of biofilm formation at 100 ug/ml incubated for 24 hrs by crystal violet staining based analysis relative to control; type: functional; set-up: scale not given: the % may be the effect or the level left; settings: dose 100 µg/ml
[7] = Inhibition of quorum sensing system in Pseudomonas aeruginosa PA01 transfected with […]
[8] = Inhibition of quorum sensing system in Pseudomonas aeruginosa PA01 transfected with lasB-gfp
Staphylococcus aureus [9] = test: Antibiofilm activity against Staphylococcus aureus ATCC 25923 after 24 hrs by crystal violet staining based assay; type: functional, organism-based; settings: ATCC 25923, 24 h
Staphylococcus aureus [10] = test: Antibiofilm activity against Staphylococcus aureus ATCC 6538 after 24 hrs by crystal violet staining based assay; type: functional, organism-based; settings: ATCC 6538, 24 h
Staphylococcus aureus [11] = test: Antibiofilm activity against methicillin-resistant Staphylococcus aureus CH 10850 at 50 ug/ml relative to control; type: functional; settings: dose 50 µg/ml
Staphylococcus aureus [12] = test: Antibiofilm activity against methicillin-resistant Staphylococcus aureus CH 10850 at 32 ug/ml relative to control; type: functional; settings: dose 32 µg/ml
Streptococcus mutans = test: Antibiofilm activity against Streptococcus mutans UA159 assessed as inhibition of biofilm formation; type: functional, organism-based
Pseudomonas aeruginosa [13] = test: Antibiofilm activity against Pseudomonas aeruginosa PA01 at 128 ug/ml relative to control; type: functional; settings: dose 128 µg/ml
Candida albicans = test: Antibiofilm activity against Candida albicans assessed as reduction in biofilm formation at 200 ug/ml measured after 48 hrs by crystal violet staining based analysis relative to control; type: functional; set-up: scale not given: the % may be the effect or the level left; settings: dose 200 µg/ml
Micrococcus luteus = test: Antibiofilm activity against Micrococcus luteus at 31.25 ug/ml incubated for 48 hrs by crystal violet staining based analysis relative to control; type: functional; settings: dose 31.25 µg/ml
[14] = test system: Pseudooceanicola batsensis; test: Antibiofilm activity against Pseudooceanicola-batsensis at 31.25 ug/ml incubated for 48 hrs by crystal violet staining based analysis relative to control; type: functional; settings: dose 31.25 µg/ml
Staphylococcus aureus [15] = test: Antibiofilm activity against methicillin-resistant Staphylococcus aureus CH 10850 at 100 ug/ml relative to control; type: functional; settings: dose 100 µg/ml
Pseudomonas aeruginosa [16] = test: Antibiofilm activity against Pseudomonas aeruginosa ATCC 15442 after 24 hrs by crystal violet staining based assay; type: functional, organism-based; settings: ATCC 15442, 24 h

Question: Which Activity (Staphylococcus aureus [1]) does the source give for COc1cc(-c2ccccn2)nc(C#N)c1SC here?
Answer: The Activity was greater than 50%.

Question: Which Activity (Marinobacter nauticus) does the source give for C/C(=C/C[C@@]12OC(C)(C)[C@H](Cl)C[C@]1(Cl)C(=O)c1c(O)cc(O)cc1C2=O)CC/C=C(\C)CO here?
Answer: Its Activity is 60.2%.

Question: Which Activity (Staphylococcus aureus [2]) does the source give for CC(C)=CCC/C(C)=C/[C@@H]1CC(C)=C[C@]2(C=C(CO)[C@H]3C[C@H](O)C(C)=C[C@H]3O2)O1 here?
Answer: The Activity was greater than 95%.

Question: For CC(=O)O[C@@H]1C[C@@H]2C(CO)=C[C@]3(C=C(C)C[C@@H](/C=C(\C)CCC=C(C)C)O3)O[C@@H]2C=C1C, which Activity (Staphylococcus aureus [3]) is on record?
Answer: Its Activity is 50%.

Question: For Cn1c(-c2nnc(-c3ccc(N)cc3)o2)cc(Br)c1Br, which MBIC [4] is on record?
Answer: The MBIC was 3.125 µg/mL.

Question: Which Activity (Marinobacter nauticus) does the source give for CC(C)=CCC/C(C)=C\C[C@@]12OC(C)(C)[C@H](Cl)C[C@]1(Cl)C(=O)c1c(cc(O)c(C)c1O)C2=O here?
Answer: The Activity was 28%.

Question: Which MBIC [5] does the source give for CCCCCC1OC1C(O)CCCCCCCCCC(=O)O (stereo not drawn) here?
Answer: The MBIC was 32 µg/mL.

Question: For O=C(OCc1ccccc1)c1ccccc1 [BENZYL BENZOATE], which Activity (Pseudomonas aeruginosa [6]) is on record?
Answer: The Activity was 37.7%.

Question: Which IC50 [7] does the source give for O=C(NCCSSCCNC(=O)/C(Cc1ccc(O)c(Br)c1)=N/O)/C(Cc1ccc(O)c(Br)c1)=N/O [PSAMMAPLIN A] here?
Answer: The IC50 was 2640 nM.

Question: And the IC50 [8]?
Answer: The IC50 was 30.7 µM.

Question: With COCCn1cc(-c2nc(-c3cn(C)c4ncccc34)cs2)c2cc(F)ccc21 as the molecule, how does the IC50 (Staphylococcus aureus [9]) read?
Answer: The IC50 was 400 nM.

Question: What about the IC50 (Staphylococcus aureus [10]) of the same molecule?
Answer: Its IC50 is 51.6 µM.

Question: Which Activity (Staphylococcus aureus [11]) does the source give for CC(=O)O[C@@H]1O[C@H](OC(C)=O)[C@H]2C(=O)[C@@H]([C@@]3(C)CCCC(C)(C)C3)CC[C@@H]12 here?
Answer: Its Activity is 97.7%.

Question: Which Activity (Staphylococcus aureus [12]) does the source give for NCC(c1c[nH]c2cc(Br)ccc12)c1c[nH]c2cc(Br)ccc12 here?
Answer: Its Activity is 56.3%.

Question: Which IC50 (Streptococcus mutans) does the source give for Cc1ccc(S(=O)(=O)n2cc3c4c2C(=O)C(NCc2ccc(Cl)cc2)=CC4=NCC3)cc1 here?
Answer: Its IC50 is 2500 nM.

Question: With NCC(c1c[nH]c2cc(F)ccc12)c1c[nH]c2cc(F)ccc12 as the molecule, how does the Activity (Staphylococcus aureus [12]) read?
Answer: Its Activity is 61%.

Question: For O=C1Nc2cc(Br)ccc2[C@@]1(c1c[nH]c2ccccc12)C1CNc2ccccc21 (stereo partly drawn), which Activity (Pseudomonas aeruginosa [13]) is on record?
Answer: Its Activity is 41.76%.

Question: For CC(C)=CCC/C(C)=C/[C@@H]1CC(C)=C[C@]2(C=C(CO)[C@H]3CC(=O)C(C)=C[C@H]3O2)O1, which Activity (Staphylococcus aureus [2]) is on record?
Answer: The Activity was greater than 75%.

Question: Which IC50 (Streptococcus mutans) does the source give for COc1ccc(CCNC2=CC3=NCCc4cn(S(=O)(=O)c5ccc(C)cc5)c(c43)C2=O)cc1 here?
Answer: The IC50 was 2000 nM.

Question: With C/C=C1/C(=O)/C(=C(/O)C(C)CCCCCC)C(=O)N1C (stereo not drawn) [PENICILLENOL B1] as the molecule, how does the Activity (Candida albicans) read?
Answer: Its Activity is 80%.

Question: With CC(C)=CCC/C(C)=C\C[C@@]12OC(C)(C)[C@H](Cl)C[C@]1(Cl)C(=O)c1c(O)cc(O)cc1C2=O as the molecule, how does the Activity (Micrococcus luteus) read?
Answer: The Activity was 88.6%.

Question: And the Activity [14]?
Answer: The Activity was 87.2%.

Question: With COC(=O)[C@H](C)c1c([C@@]2(C)CCCC(C)(C)C2)ccc2c1C(=O)OC2 as the molecule, how does the Activity (Staphylococcus aureus [11]) read?
Answer: The Activity was 99.9%.

Question: For CC(=O)OC1OC2OC(=O)[C@H](C)C34OOC([C@@]5(C)CCCC(C)(C)C5)(CC[C@@H]1C23)O4 (stereo partly drawn), which Activity (Staphylococcus aureus [15]) is on record?
Answer: The Activity was 99%.

Question: With COc1cc(-c2ccccn2)nc(/C=N/O)c1[S+](C)[O-] (stereo not drawn) as the molecule, how does the Activity (Staphylococcus aureus [1]) read?
Answer: The Activity was greater than 80%.

Question: Which Activity (Staphylococcus aureus [15]) does the source give for CCC1=C(C=O)[C@H](C(=O)OC)CC[C@@H]1[C@@]1(C)CCCC(C)(C)C1 here?
Answer: Its Activity is 90.7%.

Question: With C=C(C)C(=O)CC/C(C)=C/C[C@@]12OC(C)(C)[C@H](Cl)C[C@]1(Cl)C(=O)c1c(O)cc(O)cc1C2=O as the molecule, how does the Activity (Micrococcus luteus) read?
Answer: Its Activity is 87.3%.

Question: What about the Activity (Marinobacter nauticus) of the same molecule?
Answer: The Activity was 43.4%.

Question: With Cn1cc(-c2csc(-c3cn(CCN)c4ccc(F)cc34)n2)c2cccnc21 as the molecule, how does the IC50 (Staphylococcus aureus [9]) read?
Answer: The IC50 was 1270 nM.

Question: What about the IC50 (Pseudomonas aeruginosa [16]) of the same molecule?
Answer: The IC50 was 9.9 µM.

Question: What about the IC50 (Staphylococcus aureus [10]) of the same molecule?
Answer: The IC50 was 13.2 µM.

Question: What does the source list for C=C1CCC(Br)C(C)(C)C1C[C@@]12OC(C)(C)[C@H](Cl)C[C@]1(Cl)C(=O)c1c(O)cc(O)cc1C2=O (stereo partly drawn)?
Answer: Activity (Micrococcus luteus): 100%; Activity [14]: 26.2%; Activity (Marinobacter nauticus): 59.3%

Question: With C=C1CCC(Cl)C(C)(C)C1C[C@@]12OC(C)(C)[C@H](Cl)C=C1C(=O)c1c(cc(O)c(C)c1O)C2=O (stereo partly drawn) as the molecule, how does the Activity (Marinobacter nauticus) read?
Answer: The Activity was 33.7%.

Question: What does the source list for COCCn1cc(-c2nc(-c3cn(C)c4ncccc34)cs2)c2cc(Br)ccc21?
Answer: IC50 (Staphylococcus aureus [9]): 2030 nM; IC50 (Pseudomonas aeruginosa [16]): 9.7 µM; IC50 (Staphylococcus aureus [10]): 23.9 µM
